In ChEMBL document CHEMBL5346927, “Discovery of a novel 1H-pyrazole- [3,4-b] pyridine-based lysine demethylase 5B inhibitor with potential anti-prostate cancer activity that perturbs the phosphoinositide 3-kinase/AKT pathway” (Eur J Med Chem, 2023):
pIC50: −log10 of the molar value. Active and inactive are the calls of the source. The rule behind the calls is not given here.

What was measured:
PC-3 [1] = assay: Antitumor activity against human PC-3 cells assessed as inhibition of cell proliferation incubated for 72 hrs by MTT assay; assay type: functional, cell-based; conditions: PC-3, 72 h
[2] = Tmax in ICR mouse at 5 mg/kg, iv measured at 0.083 to 24 hrs by LC-MS analysis; assay type: ADME, organism-based; conditions: in vivo, time 0.083-24 hrs
[3] = Toxicity in BALB/C nude mouse xenografted with human PC-3 cells assessed as prostate gland damage at 25 to 50 mg/kg, IG administered for 25 days by H&E staining based analysis; assay type: organism-based; conditions: in vivo, po, 600 h, dose 25-50 mg/kg, time 25 day
PC-3 [4] = assay: Induction of apoptosis in human PC-3 cells assessed as viable cells at 2.5 uM incubated for 72 hrs by Annexin V-FITC/PI staining based flow cytometric analysis (reference value: 90.93%); assay type: functional; conditions: read-out: Activity
[5] = Acute toxicity in Kunming mouse assessed as prostate gland damage at 2 g/Kg, IG measured after 2 weeks by H&E staining based analysis; assay type: tissue-based; conditions: in vivo, po, 2000 mg/kg, 336 h
PC-3 [6] = assay: Induction of apoptosis in human PC-3 cells assessed as viable cells at 10 uM incubated for 72 hrs by Annexin V-FITC/PI staining based flow cytometric analysis (reference value: 90.93%); assay type: functional; conditions: read-out: Activity
LNCaP [7] = assay: Antiproliferative activity against human LNCaP cells assessed as inhibition of cell proliferation incubated for 72 hrs by MTT assay; assay type: functional, cell-based
[8] = MRT (0 to t) in ICR mouse at 25 mg/kg, IG measured at 0.083 to 24 hrs by LC-MS analysis; assay type: ADME, organism-based; conditions: in vivo, po, time 0.083-24 hrs
PC-3 [9] = assay: Induction of apoptosis in human PC-3 cells assessed as late apoptotic cells at 10 uM incubated for 72 hrs by Annexin V-FITC/PI staining based flow cytometric analysis (reference value: 1.05%); assay type: functional
[10] = Acute toxicity in Kunming mouse assessed as effect on survival at 2 g/Kg, IG measured after 2 weeks; conditions: in vivo, po, 2000 mg/kg, 336 h
PC-3 [11] = assay: Inhibition of colony formation in human PC-3 cells incubated for 72 hrs by crystal violet staining based microplate reader analysis; assay type: functional, cell-based; conditions: dose 1.25-5 µM
PC-3 [12] = assay: Induction of apoptosis in human PC-3 cells assessed as necrotic cells at 2.5 uM incubated for 72 hrs by Annexin V-FITC/PI staining based flow cytometric analysis (reference value: 5.01%); assay type: functional
[13] = Cmax in ICR mouse at 25 mg/kg, IG measured at 0.083 to 24 hrs by LC-MS analysis; assay type: ADME, organism-based; design: time lower 0.083 hrs, dose 25 mg/kg, time upper 24 hrs, route ig; conditions: in vivo, po
PC-3 [14] = assay: Induction of apoptosis in human PC-3 cells assessed as necrotic cells at 5 uM incubated for 72 hrs by Annexin V-FITC/PI staining based flow cytometric analysis (reference value: 5.01%); assay type: functional
[15] = target: T1, Lysine-specific demethylase 5B (Homo sapiens, UniProt Q9UGL1); assay: Inhibition of KDM5B in human PC-3 cells assessed as H3K4me1 accumulation incubated for 72 hrs by Western blot analysis; assay type: cell-based
[16] = Acute toxicity in Kunming mouse assessed as effect on spleen at 2 g/Kg, IG measured after 2 weeks by H&E staining based analysis; assay type: tissue-based; conditions: in vivo, po, 2000 mg/kg, 336 h
[17] = Cmax in ICR mouse at 5 mg/kg, iv measured at 0.083 to 24 hrs by LC-MS analysis; assay type: ADME, organism-based; design: time upper 24 hrs, time lower 0.083 hrs, dose 5 mg/kg, route iv; conditions: in vivo
[18] = target: T1, Lysine-specific demethylase 5B; assay: Binding affinity to KDM5B in human PC-3 cells assessed as thermal stability by measuring KDM5B expression level preincubated with compound for 6 hrs followed by 20 mins incubation under 46 to 56 degreeC by CETSA based Western blot analysis; assay type: cell-based; conditions: time 380.0 min
PC-3 [19] = assay: Antitumor activity against human PC-3 cells xenografted in BALB/C nude mice assessed as decrease in tumor weight at 25 to 50 mg/kg, IG administered for 25 days; assay type: functional, organism-based; conditions: dose 25-50 mg/kg, time 25.0 day
MCF7 = assay: Antitumor activity against human MCF7 cells assessed as inhibition of cell proliferation incubated for 72 hrs by MTT assay; assay type: functional, cell-based; conditions: MCF7, 72 h
PC-3 [20] = assay: Inhibition of PI3K/AKT pathway in human PC-3 cells assessed as decrease in AKT phosphorylation at Thr308 residue at 20 uM by Western blot analysis relative to control; assay type: cell-based
PC-3 [21] = assay: Antitumor activity against human PC-3 cells xenografted in BALB/C nude mice assessed as decrease in tumor volume at 50 mg/kg, IG measured after 13 days; assay type: functional, organism-based; conditions: time 13.0 day
DU-145 = assay: Antiproliferative activity against human DU-145 cells assessed as inhibition of cell proliferation incubated for 72 hrs by MTT assay; assay type: functional, cell-based; conditions: DU-145, 72 h
[22] = Half-life in ICR mouse at 25 mg/kg, IG measured at 0.083 to 24 hrs by LC-MS analysis; assay type: ADME, organism-based; conditions: in vivo, po, time 0.083-24 hrs
LNCaP [23] = assay: Induction of cell cycle arrest in human LNCaP cells assessed as accumulation of cells at G2/M phase at 5 micromol/L incubated for 48 hrs by PI/RNaseA staining based flow cytometric analysis; assay type: functional; conditions: dose 5.0 µmol/L
[24] = Toxicity in BALB/C nude mouse xenografted with human PC-3 cells assessed as spleen damage at 25 to 50 mg/kg, IG administered for 25 days by H&E staining based analysis; assay type: organism-based; conditions: in vivo, po, 600 h, dose 25-50 mg/kg, time 25 day
[25] = Toxicity in BALB/C nude mouse xenografted with human PC-3 cells assessed as effect on body weight at 25 to 50 mg/kg, IG administered for 25 days; assay type: organism-based; conditions: in vivo, po, 600 h, dose 25-50 mg/kg, time 25 day
[26] = Cytotoxicity against human WPMY-1 cells incubated for 72 hrs by MTT assay; assay type: toxicity, cell-based
[27] = Toxicity in BALB/C nude mouse xenografted with human PC-3 cells assessed as reduction in prostate gland cells at 25 mg/kg, IG administered for 25 days by H&E staining based analysis; assay type: organism-based; conditions: in vivo, po, 600 h, time 25 day
LNCaP [28] = assay: Inhibition of colony formation in human LNCaP cells incubated for 72 hrs by crystal violet staining based microplate reader analysis; assay type: functional, cell-based
PC-3 [29] = assay: Inhibition of cell migration in human PC-3 cells at 5 to 10 uM by wound scratch assay; assay type: functional, cell-based; conditions: dose 5-10 µM, time <= 24.0 hrs, TDE = time-dependent effect
[30] = MRT (0 to t) in ICR mouse at 5 mg/kg, iv measured at 0.083 to 24 hrs by LC-MS analysis; assay type: ADME, organism-based; conditions: in vivo, time 0.083-24 hrs
[31] = AUC (0 to t) in ICR mouse at 5 mg/kg, iv measured at 0.083 to 24 hrs by LC-MS analysis; assay type: ADME, organism-based; design: time lower 0.083 hrs, dose 5 mg/kg, time upper 24 hrs, route iv; conditions: in vivo
PC-3 [32] = assay: Induction of apoptosis in human PC-3 cells assessed as early apoptotic cells at 10 uM incubated for 72 hrs by Annexin V-FITC/PI staining based flow cytometric analysis (reference value: 3.01%); assay type: functional
PC-3 [33] = assay: Induction of cell cycle arrest in human PC-3 cells assessed as increase in G2/M phase cell ratio at 10 uM incubated for 24 hrs by PI/RNase A staining based flow cytometric analysis (reference value: 16.07%); assay type: functional
[34] = target: T1, Lysine-specific demethylase 5B; assay: Inhibition of KDM5B in human PC-3 cells assessed as H3K4me2 accumulation incubated for 72 hrs by Western blot analysis; assay type: cell-based
PC-3 [35] = assay: Antitumor activity against human PC-3 cells xenografted in BALB/C nude mice assessed as decrease in tumor volume at 25 to 50 mg/kg, IG administered for 25 days; assay type: functional, organism-based; conditions: dose 25-50 mg/kg, time 25.0 day

T1 sequence (Q9UGL1 whole entry): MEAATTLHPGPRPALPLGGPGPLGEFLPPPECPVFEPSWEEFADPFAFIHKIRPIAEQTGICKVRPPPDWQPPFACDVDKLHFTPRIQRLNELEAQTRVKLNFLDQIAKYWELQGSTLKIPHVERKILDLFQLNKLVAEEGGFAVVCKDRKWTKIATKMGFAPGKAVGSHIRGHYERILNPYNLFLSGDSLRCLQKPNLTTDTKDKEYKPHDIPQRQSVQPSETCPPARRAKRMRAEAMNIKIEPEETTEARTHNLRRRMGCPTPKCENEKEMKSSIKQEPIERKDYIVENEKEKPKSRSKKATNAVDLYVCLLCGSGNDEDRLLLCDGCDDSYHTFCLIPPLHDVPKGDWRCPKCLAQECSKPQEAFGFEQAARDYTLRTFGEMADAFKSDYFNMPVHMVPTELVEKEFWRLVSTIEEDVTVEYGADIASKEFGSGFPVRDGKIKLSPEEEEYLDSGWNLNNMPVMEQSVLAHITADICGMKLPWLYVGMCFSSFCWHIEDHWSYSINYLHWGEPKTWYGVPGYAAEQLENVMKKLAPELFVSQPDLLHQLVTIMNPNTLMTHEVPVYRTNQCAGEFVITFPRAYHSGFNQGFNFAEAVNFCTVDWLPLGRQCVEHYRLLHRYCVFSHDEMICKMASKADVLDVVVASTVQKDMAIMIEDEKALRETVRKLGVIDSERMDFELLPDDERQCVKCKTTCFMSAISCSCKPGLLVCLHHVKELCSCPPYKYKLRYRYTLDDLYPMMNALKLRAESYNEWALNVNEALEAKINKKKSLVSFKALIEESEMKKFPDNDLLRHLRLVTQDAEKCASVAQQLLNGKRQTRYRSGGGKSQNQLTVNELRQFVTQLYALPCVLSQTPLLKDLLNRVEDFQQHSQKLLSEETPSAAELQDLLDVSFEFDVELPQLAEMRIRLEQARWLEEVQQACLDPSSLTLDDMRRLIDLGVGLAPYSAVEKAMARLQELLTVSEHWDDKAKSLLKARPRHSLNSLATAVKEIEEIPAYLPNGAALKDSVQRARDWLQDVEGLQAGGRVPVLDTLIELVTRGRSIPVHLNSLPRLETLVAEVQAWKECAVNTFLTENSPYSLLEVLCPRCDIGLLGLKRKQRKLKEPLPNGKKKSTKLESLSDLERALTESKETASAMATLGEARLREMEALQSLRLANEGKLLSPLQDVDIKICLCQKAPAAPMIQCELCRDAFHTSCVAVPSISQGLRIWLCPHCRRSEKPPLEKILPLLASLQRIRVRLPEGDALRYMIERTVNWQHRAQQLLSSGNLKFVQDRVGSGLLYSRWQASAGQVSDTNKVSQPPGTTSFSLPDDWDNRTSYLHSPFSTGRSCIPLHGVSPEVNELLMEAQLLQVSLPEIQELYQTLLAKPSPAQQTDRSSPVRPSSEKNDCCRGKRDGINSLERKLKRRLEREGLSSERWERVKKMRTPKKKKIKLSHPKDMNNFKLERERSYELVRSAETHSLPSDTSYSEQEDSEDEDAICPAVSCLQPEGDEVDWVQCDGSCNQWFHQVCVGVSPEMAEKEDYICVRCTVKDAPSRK

For `CN1CCN(CCNC(=O)c2cc(-c3ccc4ccccc4c3)nc3c2cnn3-c2ccccc2)CC1`, the pIC50 (PC-3 [1]) was 5.66, the Tmax [2] was 4.98 min and the Activity [3] was “Non-Toxic”. The viability at 2.5 µM (PC-3 [4]) was 75%, the Activity [5] was “Non-Toxic” and the viability at 10 µM (PC-3 [6]) was 58.8%. It also gave a pIC50 (LNCaP [7]) of 5.36, an MRT last [8] of 6.9 h and an Activity (PC-3 [9]) of 16.39%. For the same compound, the Activity [10] was “Non-Toxic”, the inhibition (PC-3 [11]) was “Dose-Dependent Effect” and the Activity (PC-3 [12]) was 18.36%. The Cmax [13] was 412 ng/mL, the Activity (PC-3 [14]) was 18.77% and the inhibition [15] was “Dose-Dependent Effect”. The Activity [16] was “Non-Toxic”, the Cmax [17] was 551.67 ng/mL and the Activity [18] was “Active”. For the same compound, the Activity (PC-3 [19]) was “Active”, the pIC50 (MCF7) was 5.17 and the inhibition (PC-3 [20]) was 60%. The Activity (PC-3 [21]) was “Active”, the pIC50 (DU-145) was 5.02 and the half-life [22] was 5.3 h. The Activity (LNCaP [23]) was “inactive”, the Activity [24] was “Non-Toxic” and the Activity [25] was “Non-Toxic”. The IC50 at 72 h [26] was 27.9 µM, the Activity [27] was “Non-Toxic” and the inhibition (LNCaP [28]) was “Dose-Dependent Effect”. For the same compound, the inhibition (PC-3 [29]) was “Tde”, the “MRT(t)” value [30] was 10.29 h and the AUCt [31] was 44437.67 ng·h/mL. The Activity (PC-3 [32]) was 0.81%, the Activity (PC-3 [33]) was 75.33% and the inhibition [34] was “Dose-Dependent Effect”. For the same compound, the Activity (PC-3 [35]) was “Active”.
